Source: patent US5425935A, “Imaging of infections” (British Technology Group Limited, priority 1991, dated 1995)

Legend:
[1] = test system: Staphylococcus aureus (SA); assay: Take up of Tc-99m complexes by Staphylococcus aureus (SA), percentage radionuclide retained; assay type: cell-based; conditions: for percent radionuclide retained in the microorganism: 4 hours' incubation, purified complexes
[2] = test system: Pseudomonas aboubinoba (PA); assay: Take up of Tc-99m complexes by Pseudomonas aboubinoba (PA), percentage radionuclide retained; assay type: cell-based; conditions: for percent radionuclide retained in the microorganism: 4 hours' incubation, purified complexes
[3] = test system: Escherichia coli (EC); assay: Take up of Tc-99m complexes by Escherichia coli (EC), percentage radionuclide retained; assay type: cell-based; conditions: for percent radionuclide retained in the microorganism: 4 hours' incubation, purified complexes
[4] = Extent of complexation with Tc-99m prior to purification; assay type: physicochemical
Protocol: A further sample of Tc-99m-CIP complex was obtained as generally described in Example 1. Samples of Tc-99m complexed ofloxacin (obtained in powder form from Hoechst) and norfloxacin (obtained in powder form from Merck Sharpe & Dohme) were obtained as described for ciprofloxacin. Prior to purification, it was determined that the extent of complexation percent was as follows: […]

[5] = 2 hr. incubation, not further purified
[6] = 4 hr. incubation, not further purified
[7] = 21 hr. incubation, CIP not further purified

| SMILES | percentage radionuclide retained in the microorganisms [1, 5] | percent radionuclide retained in the microorganism [1] | percentage radionuclide retained in the microorganisms [1, 6] | percentage radionuclide retained in the microorganisms [1, 7] | percentage radionuclide retained in the microorganisms [2, 5] | percent radionuclide retained in the microorganism [2] | percentage radionuclide retained in the microorganisms [2, 6] | percentage radionuclide retained in the microorganisms [2, 7] | percentage radionuclide retained in the microorganisms [3, 5] | percent radionuclide retained in the microorganism [3] | percentage radionuclide retained in the microorganisms [3, 6] | percentage radionuclide retained in the microorganisms [3, 7] | extent of complexation percent [4] |
| --- | --- | --- | --- | --- | --- | --- | --- | --- | --- | --- | --- | --- | --- |
| O=C(O)c1cn(C2CC2)c2cc(N3CCNCC3)c(F)cc2c1=O [Tc-99m-ciprofloxacin, metal not drawn] | 17.24 percentage | 58.47% | 14.63 percentage | 15.08 percentage | 24.14 percentage | 50.20% | 16.67 percentage | 21.32 percentage | 15.78 percentage | 43.89% | 11.72 percentage | 12.90 percentage | 51.7% |
| CCn1cc(C(=O)O)c(=O)c2cc(F)c(N3CCNCC3)cc21 [norfloxacin] | – | 37.86% | – | – | – | 44.53% | – | – | – | 48.28% | – | – | 76.5% |
| CC1COc2c(N3CCN(C)CC3)c(F)cc3c(=O)c(C(=O)O)cn1c23 (stereo not drawn) [ofloxacin] | – | 76.94% | – | – | – | 79.39% | – | – | – | 77.95% | – | – | 88.5% |
